# Laboratory results: ChEMBL document CHEMBL3632614, “Small molecules that promote regenerative repair for pancreatic and cardiovascular health” (2015)
# How the values were obtained:
# [1] = Induction of rat beta cell proliferation assessed as increase in PDX1 expressing cells relative to control; type: functional, Pancreatic beta cell
# [2] = Induction of rat beta cell proliferation after 3 days relative to control; type: functional, Pancreatic beta cell
# Rattus norvegicus = species: Rattus norvegicus; assay: Increase in rat beta cell mass in rat T1DM model after 45 days; type: functional
smiles,measurement,setting,value
Nc1ncnc2nc(-c3ccc(N4CCOCC4)nc3)cc(-c3cccc(Br)c3)c12,fold change (FC),[1],2
CN1CCN(Cc2ccc(NC(=O)Cc3ccc(Oc4cc(NC(=O)C5CC5)ncn4)cc3)cc2C(F)(F)F)CC1,Activity,[2],<=4%
same,Activity,Rattus norvegicus,50%
COC(=O)C1=C(C)NC(C)=C([N+](=O)[O-])C1c1ccccc1C(F)(F)F (centres undefined),fold change (FC),[2],2.5
